Target: HDM2 (MDM2) (Homo sapiens, UniProt Q00987)
Test: HTR-FRET competition assay of biotin-p53 / GST-HDM2 binding

HDM2 (MDM2), sequence (Q00987 whole entry): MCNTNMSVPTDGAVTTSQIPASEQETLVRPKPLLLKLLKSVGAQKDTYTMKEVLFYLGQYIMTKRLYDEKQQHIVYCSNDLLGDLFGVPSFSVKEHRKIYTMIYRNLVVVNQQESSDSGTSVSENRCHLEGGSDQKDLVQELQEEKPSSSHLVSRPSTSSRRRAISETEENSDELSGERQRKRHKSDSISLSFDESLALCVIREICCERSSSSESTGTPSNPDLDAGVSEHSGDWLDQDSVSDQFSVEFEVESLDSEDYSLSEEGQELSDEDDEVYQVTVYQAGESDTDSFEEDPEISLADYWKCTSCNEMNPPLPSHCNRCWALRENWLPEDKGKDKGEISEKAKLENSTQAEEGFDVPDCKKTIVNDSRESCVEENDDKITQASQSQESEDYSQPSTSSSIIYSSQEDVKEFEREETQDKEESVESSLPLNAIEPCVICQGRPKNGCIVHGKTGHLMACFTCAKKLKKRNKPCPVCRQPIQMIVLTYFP

CCC[C@@H](C)[C@H](O)[C@H](C)[C@@H](O)[C@@H](C)[C@H](Cc1nc(C2=N[C@@](C)(C3=N[C@@](C)(C(=O)N[C@H]([C@@H](O)[C@@H](C)C(=O)O)[C@@H](C)CC)CS3)CS2)cs1)OC [compound 1, hoiamide D]
IC50: 4.5 µM

Source: PMC3248991 (2011)
